13 molecules from patent US4983602A, “3'-hydroxybenzoxazinorifamycin derivative, process for preparing the same and antibacterial agent containing the same” (Kanegafuchi Kagaku Kogyo Kabushiki Kaisha, priority 1988, dated 1991) can be followed below.

Assay [1] has as its system Mycobacterium tuberculosis H37 Rv. Briefly: Minimal inhibitory concentration against a tubercle bacillus. The note with it: Kirchner liquid medium containing 10% bovine serum, 37° C., 4 weeks.
The subject of assay [2] is Staphylococcus aureus IFO 12732. Briefly: Minimal inhibitory concentration, standard method of Japan Society of Chemotherapy. It counts as cell-based. The note with it: IFO12732.
Assay [3] concerns Mycobacterium tuberculosis H37 Rv. Briefly: Survival of mice infected with tuberculosis, groups of 10 (Tables 4 and 5). The note with it: oral, 200 μg/mouse; for dead mice: fortieth day.
Assay [4] relates to Micrococcus luteus IFO 12708. Briefly: Minimal inhibitory concentration, standard method of Japan Society of Chemotherapy. Conditions: IFO12708. In kind it is cell-based.
In assay [5] the test system is Escherichia coli IFO 12734. The assay is described as above. Conditions: IFO12734. It counts as cell-based.
Assay [6] deals with Klebsiella pneumoniae IFO 3512. The description is as above. In kind it is cell-based. The note with it: IFO3512.
In assay [7] the test system is Bacillus subtilis IFO 3134. The assay is described as above. In kind it is cell-based. The note with it: IFO3134.
The subject of assay [8] is Mycobacterium smegmatis ATCC 607. The description is as above. In kind it is cell-based. The note with it: Mycolicibacterium smegmatis, ATCC607.
Assay [9] has as its system Mycobacterium tuberculosis H37 Rv. Briefly: Therapeutic effect on mice infected with tuberculosis, groups of 20 (FIG. 1). Conditions: oral, 200 μg/mouse once a day, six days a week.

The structures appear in SMILES notation. Values after ≈ are worked out from the molar mass of the structure shown.

In general, MIC refers to the smallest concentration in the dilution series that meets the test's criterion for growth inhibition. A lower MIC goes with inhibition by little substance. With `COC1C=COC2(C)Oc3c(C)c(O)c4c(=O)c(c5oc6cc(N7CCN(C(C)(C)C)CC7)cc(O)c6nc-5c4c3C2=O)NC(=O)C(C)=CC=CC(C)C(O)C(C)C(O)C(C)C(OC(C)=O)C1C` (stereo not drawn) [Derivative No. 6], the Minimal inhibitory concentration in [1] was found to be 0.008 µg/mL (≈ 0.0085 µM). The minimal inhibitory concentration (MIC) in [2] was not above 0.02 µg/mL; in assay [4], not above 0.02 µg/mL; in assay [5], more than 10 µg/mL; in assay [6], more than 10 µg/mL; in assay [7], not above 0.02 µg/mL; in [8], 1.25 µg/mL (≈ 1.33 µM). The molecule also displayed a Survival rate in assay [3] (Table 5, control 0%) of 100%. In [3] (Table 5 test), the dead mice entry is listed as “there was not observed any dead mouse”.
`CCCCN1CCN(c2cc(O)c3nc4c5c6c7c(C)c(O)c5c(=O)c(c-4oc3c2)NC(=O)C(C)=CC=CC(C)C(O)C(C)C(O)C(C)C(OC(C)=O)C(C)C(OC)C=COC(C)(O7)C6=O)CC1` (stereo not drawn) [Derivative No. 1] returned a Minimal inhibitory concentration in assay [1] of 0.035 µg/mL (≈ 0.0372 µM). The minimal inhibitory concentration (MIC) is not above 0.02 µg/mL in assay [2]; not above 0.02 µg/mL in assay [4]; more than 10 µg/mL in assay [5]; more than 10 µg/mL in [6]; not above 0.02 µg/mL in assay [7]; 5 µg/mL (≈ 5.31 µM) in assay [8]. Also, the Survival rate in assay [3] (Table 5, control 0%) is on record as 100%. Besides, the dead mice entry in [3] (Table 5 test) was “there was not observed any dead mouse”.
On to `COC1C=COC2(C)Oc3c(C)c(O)c4c(=O)c(c5oc6cc(N7CCCCC7)ccc6nc-5c4c3C2=O)NC(=O)C(C)=CC=CC(C)C(O)C(C)C(O)C(C)C(OC(C)=O)C1C` (stereo not drawn) [derivative B], for which the “therapeutic effect as compared with rifampicin (and derivative A)” value in assay [9] is on record as “inferior to rifampicin”.
On to `COC1C=COC2(C)Oc3c(C)c(O)c4c(=O)c(c5oc6cc(N7CCN(CC=C(C)C)CC7)cc(O)c6nc-5c4c3C2=O)NC(=O)C(C)=CC=CC(C)C(O)C(C)C(O)C(C)C(OC(C)=O)C1C` (stereo not drawn) [Derivative No. 9], for which the Minimal inhibitory concentration in [1] is 0.035 µg/mL (≈ 0.0367 µM). The minimum inhibitory concentration (MIC) in assay [2] was not above 0.02 µg/mL; in assay [4], not above 0.02 µg/mL; in assay [5], more than 10 µg/mL; in assay [6] it was more than 10 µg/mL; in assay [7], 0.08 µg/mL (≈ 0.0839 µM); in assay [8] it was 2.5 µg/mL (≈ 2.62 µM). This molecule returned a Survival rate in assay [3] (Table 4, control 30%) of 100%. Also, the dead mice entry in [3] (Table 4 test) is “there was not observed any dead mouse”.
In assay [1], `COC1C=COC2(C)Oc3c(C)c(O)c4c(=O)c(c5oc6cc(N7CCN(CCC(C)C)CC7)cc(O)c6nc-5c4c3C2=O)NC(=O)C(C)=CC=CC(C)C(O)C(C)C(O)C(C)C(OC(C)=O)C1C` (stereo not drawn) [Derivative No. 5] gave a Minimal inhibitory concentration of 0.07 µg/mL (≈ 0.0733 µM). Moreover, the MIC in [2] is not above 0.02 µg/mL; in assay [4], not above 0.02 µg/mL; in [5], more than 10 µg/mL; in assay [6], more than 10 µg/mL; in assay [7] it was 0.16 µg/mL (≈ 0.168 µM); in assay [8] it was 5 µg/mL (≈ 5.23 µM). The same molecule displayed a Survival rate in assay [3] (Table 4, control 30%) of 100%. Moreover, the dead mice result in [3] (Table 4 test) is recorded as “there was not observed any dead mouse”.
In assay [1], `COC1C=COC2(C)Oc3c(C)c(O)c4c(=O)c(c5oc6cc(N7CCN(CC8CC8)CC7)cc(O)c6nc-5c4c3C2=O)NC(=O)C(C)=CC=CC(C)C(O)C(C)C(O)C(C)C(OC(C)=O)C1C` (stereo not drawn) [Derivative No. 3] yielded a Minimal inhibitory concentration of 0.017 µg/mL (≈ 0.0181 µM). For the same molecule, the MIC in assay [2] is not above 0.02 µg/mL; in assay [4] it was not above 0.02 µg/mL; in [5] it was more than 10 µg/mL; in [6], more than 10 µg/mL; in assay [7], not above 0.02 µg/mL; in [8], 2.5 µg/mL (≈ 2.66 µM). In [3] (Table 4, control 30%), this molecule had a Survival rate of 100%. Also, in assay [3] (Table 4 test), the dead mice result is “there was not observed any dead mouse”.
In assay [1], `C=CCN1CCN(c2cc(O)c3nc4c5c6c7c(C)c(O)c5c(=O)c(c-4oc3c2)NC(=O)C(C)=CC=CC(C)C(O)C(C)C(O)C(C)C(OC(C)=O)C(C)C(OC)C=COC(C)(O7)C6=O)CC1` (stereo not drawn) [Derivative No. 7] came in with a Minimal inhibitory concentration of 0.035 µg/mL (≈ 0.0378 µM). Moreover, the MIC in [2] was not above 0.02 µg/mL; in [4], not above 0.02 µg/mL; in assay [5], more than 10 µg/mL; in assay [6], more than 10 µg/mL; in [7] it was 0.04 µg/mL (≈ 0.0432 µM); in [8], 2.5 µg/mL (≈ 2.7 µM). Besides, the Survival rate in assay [3] (Table 4, control 30%) was determined as 100%. In [3] (Table 4 test), the dead mice entry is “there was not observed any dead mouse”.
`CCc1c(N2CCCC2)ccc2nc3c4c5c6c(C)c(O)c4c(=O)c(c-3oc12)NC(=O)C(C)=CC=CC(C)C(O)C(C)C(O)C(C)C(OC(C)=O)C(C)C(OC)C=COC(C)(O6)C5=O` (stereo not drawn) [derivative C]: the “therapeutic effect as compared with rifampicin (and derivative A)” value in assay [9] is on record as “inferior to rifampicin”.
As for `C=CCCN1CCN(c2cc(O)c3nc4c5c6c7c(C)c(O)c5c(=O)c(c-4oc3c2)NC(=O)C(C)=CC=CC(C)C(O)C(C)C(O)C(C)C(OC(C)=O)C(C)C(OC)C=COC(C)(O7)C6=O)CC1` (stereo not drawn) [Derivative No. 8], the Minimal inhibitory concentration in assay [1] is 0.017 µg/mL (≈ 0.0181 µM). The MIC in assay [2] is not above 0.02 µg/mL; in assay [4], not above 0.02 µg/mL; in assay [5] it was more than 10 µg/mL; in [6] it was more than 10 µg/mL; in assay [7], not above 0.02 µg/mL; in assay [8] it was 2.5 µg/mL (≈ 2.66 µM). This molecule also had a Survival rate in assay [3] (Table 5, control 0%) of 100%. Moreover, in assay [3] (Table 5 test), the dead mice entry is given as “there was not observed any dead mouse”.
Consider `CO[C@H]1/C=C/O[C@@]2(C)Oc3c(C)c(O)c4c(O)c(c(/C=N/N5CCN(C)CC5)c(O)c4c3C2=O)NC(=O)/C(C)=C\C=C\[C@H](C)[C@H](O)[C@@H](C)[C@@H](O)[C@@H](C)[C@H](OC(C)=O)[C@@H]1C` [Rifampicin, reference compound], for which the Minimal inhibitory concentration in assay [1] is 0.6 µg/mL (≈ 0.729 µM). The Survival rate in assay [3] (Table 4, control 30%) turned out to be 80%; in [3] (Table 5, control 0%) it was 40%.
`COC1C=COC2(C)Oc3c(C)c(O)c4c(=O)c(c5oc6cc(N7CCN(CC(C)C)CC7)cc(O)c6nc-5c4c3C2=O)NC(=O)C(C)=CC=CC(C)C(O)C(C)C(O)C(C)C(OC(C)=O)C1C` (stereo not drawn) [Derivative No. 2] came in with a Minimal inhibitory concentration in [1] of 0.017 µg/mL (≈ 0.0181 µM). Also, the MIC in [2] was not above 0.02 µg/mL; in [4] it was not above 0.02 µg/mL; in assay [5] it was more than 10 µg/mL; in assay [6] it was more than 10 µg/mL; in [7] it was 0.04 µg/mL (≈ 0.0425 µM); in assay [8], 2.5 µg/mL (≈ 2.66 µM). Moreover, the Survival rate in [3] (Table 4, control 30%) was found to be 100%. For the same molecule, in [3] (Table 4 test), the dead mice entry is “there was not observed any dead mouse”. Further, the “therapeutic effect as compared with rifampicin (and derivative A)” value in assay [9] is recorded as “excellent therapeutic effect as compared with rifampicin”.
The molecule `CCC(C)N1CCN(c2cc(O)c3nc4c5c6c7c(C)c(O)c5c(=O)c(c-4oc3c2)NC(=O)C(C)=CC=CC(C)C(O)C(C)C(O)C(C)C(OC(C)=O)C(C)C(OC)C=COC(C)(O7)C6=O)CC1` (stereo not drawn) [Derivative No. 4] yielded a Minimal inhibitory concentration in [1] of 0.017 µg/mL (≈ 0.0181 µM). Moreover, the MIC in assay [2] was not above 0.02 µg/mL; in assay [4] it was not above 0.02 µg/mL; in assay [5], more than 10 µg/mL; in [6] it was more than 10 µg/mL; in [7] it was not above 0.02 µg/mL; in [8], 1.25 µg/mL (≈ 1.33 µM). Besides, in assay [3] (Table 5, control 0%), the Survival rate was 100%. The dead mice entry in assay [3] (Table 5 test) is “there was not observed any dead mouse”.
Molecule `COC1C=COC2(C)Oc3c(C)c(O)c4c(=O)c(c5oc6cc(N7CCN8CCCC8C7)cc(O)c6nc-5c4c3C2=O)NC(=O)C(C)=CC=CC(C)C(O)C(C)C(O)C(C)C(OC(C)=O)C1C` (stereo not drawn) [Derivative No. 10] returned a Minimal inhibitory concentration in assay [1] of 0.15 µg/mL (≈ 0.162 µM). The MIC in assay [2] was not above 0.02 µg/mL; in [4] it was not above 0.02 µg/mL; in assay [5], 10 µg/mL (≈ 10.8 µM); in [6], 10 µg/mL (≈ 10.8 µM); in assay [7], not above 0.02 µg/mL; in assay [8], 2.5 µg/mL (≈ 2.7 µM). The molecule also displayed a Survival rate in assay [3] (Table 4, control 30%) of 100%. Further, in assay [3] (Table 4 test), the dead mice entry is “there was not observed any dead mouse”.
